What follows are compounds tested on CD34+ HSC (assay: HSC expansion without feeder layer, in SF-UCM or concentrated SF-UCM with supplements, 12-day culture). Conditions: day 12; no feeder layer; SCGM with 6 cytokines and hydrocortisone.
Assay type: cell-based
Text: To test potential replacement for the feeder layers, we have tested a serum-free umbilical cord mesenchymal stem cell conditioned medium (SF-UCM) from UC-MSC. The serum-free umbilical cord mesenchymal stem cell conditioned medium is for example produced by the method described above, comprising the steps of: (a) culturing an umbilical cord mesenchymal stem cell in a serum-free cell culture medium (e.g. serum-free SCGM), and (b) isolating the conditioned cell culture medium.
In FIG. 3A and FIG. 3B, the positive control (PC) group is in IMDM as described above. The PC & S1 groups shown in FIG. 3A and 3B are grown as follows: At day 0, CD34+ HSC are thawed and co-cultured with UC-MSC feeder for 12 days with a cell density of 2.5×10^4 cells/ml, using 5% CS (cord serum)/IMDM medium containing the 6 cytokines and hydrocortisone for PC group or using SCGM containing 6 cytokines, hydrocortisone and 4 supplements for S1 group.
The S3-2 group was grown as follows: At day 0, CD34+ HSC are thawed and cultured in a culture medium mixture of 50% (v/v) SF-UCM and 50% (v/v) fresh SCGM containing 6 cytokines, hydrocortisone and 4 supplements with a cell density of 2.5×10^4 cells/ml for 12 days. The 6 cytokines, hydrocortisone and 4 supplements used herein are the same as described in example 2.
During 12-day culture, 50% culture medium is replenished as well as newly prepared UC-MSC feeder every 4 days, and CD34+ cells are maintained at a cell density of 2.5-5×10^4 cells/ml. At day 12, cumulative total cell expansion folds and CD34+ expansion folds are calculated.
The following experiment is performed to evaluate the effect of replacing feeder layers with SF-UCM or concentrated SF-UCM. The SF-UCM obtained in Example 3 was further concentrated with a 5-10 kDa cut-off membrane (preferably a 5 kDa cut-off membrane) to obtain 10 times concentrated (in volume) conditioned medium. The concentrated conditioned medium was filtered with a 0.22 μm filter, and the filtrate is collected to obtain the desired con. SF-UCM (abbreviated as “c-SF-UCM”). The results of replacing the feeder layers with SF-UCM or con.
In FIG. 4A and 4B, the PC, Sl, and S3-2 groups are the same as described in Example 3. The S3-3 group is as follows: At day 0, CD34+ HSC are thawed and cultured in a culture medium mixture of 5% (v/v) concentrated SF-UCM and 95% (v/v) SCGM containing 6 cytokines, 4 supplements, and hydrocortisone with a cell density of 2.5×10^4 cells/ml for 12 days. The 6 cytokines, hydrocortisone and 4 supplements used herein are the same as described in example 2. The above medium mixture is 50% replenished every 4 days and the cells (including CD34+ cells) are maintained at a cell density of 2.5-10×10^4 cells/ml. At day 12, cumulative total cell expansion folds and CD34+ (ISHAGE) expansion folds are calculated.
At day 0, CD34+ HSC are thawed and cultured in a corresponding culture medium in the following groups: (1) SCGM+SP+UCM group: a culture medium mixture of 5% (v/v) c-SF-UCM and 95% (v/v) SCGM containing 6 cytokines, 4 supplements and hydrocortisone; (2) SCGM+SP group: SCGM containing 6 cytokines, 4 supplements and hydrocortisone; (3) SCGM+UCM group: a culture medium mixture of 5% (v/v) c-SF-UCM and 95% (v/v) SCGM containing 6 cytokines and hydrocortisone; and (4) SCGM group: SCGM containing 6 cytokines and hydrocortisone. The 6 cytokines, hydrocortisone and 4 supplements used herein are the same as described in example 2.
The cells are cultured at a cell density of 2.5×10^4 cells/ml. The above medium mixture is 50-80% replenished every 4 days and the cells (including CD34+ cells) are maintained at a cell density of 2.5-10×10^4 cells/ml. At day 12, cumulative total cell expansion folds and CD34+ (ISHAGE) expansion folds are calculated.
In this experiment, the PC group and S3-3 group is the same as the previous examples. The culture medium is 50% replenished every 4 days, and cells are maintained at a cell density of 2.5-5×10^4 cells/ml. […]

Compound	CD34+ (ISHAGE) expansion folds	cumulative total cell expansion folds
Cc1c(C)c2c(c(C)c1O)CC[C@@](C)(CCC[C@H](C)CCC[C@H](C)CCCC(C)C)O2 [vitamin E, α-tocopherol]	alone is also sufficient in supporting the expansion	alone is also sufficient in supporting the expansion
transferrin (TF): transferrin, supplement used at 30 μg/ml	does not further increase the enhancement to any appreciable extent	does not further increase the enhancement to any appreciable extent
O=C1O[C@H]([C@@H](O)CO)C(O)=C1O [vitamin C, L-ascorbic acid]	alone can support the expansion	alone can support the expansion

— patent publication US20180163177A1, “SERUM-FREE CULTURE MEDIUM AND METHOD FOR EXPANDING HEMATOPOIETIC STEM CELLS” (HealthBanks Biotech Co. Ltd., priority 2016, published 2018)
